Source: the kinase profiling compilation of Christmann-Franck et al. (2016)

Assays:
Assay in all cases: KINOMEscan competition binding
Details in all cases: compound 10.0 µM
MAP3K3 (human) = MAP3K3 (human) (UniProt Q99759)
[1] = tested on: PIK3CA (human), P42336 [E542K]
NUAK1 (human) = NUAK1 (human) (UniProt O60285)
PIP5K1C (human) = PIP5K1C (human) (UniProt O60331)
YSK4 (human) = YSK4 (human) (UniProt Q56UN5)
SIK1 (human) = SIK1 (human) (UniProt P57059)
ZAP70 (human) = ZAP70 (human) (UniProt P43403)
SIK2 (human) = SIK2 (human) (UniProt Q9H0K1)
Chain of SIK2 (human) (Q9H0K1 whole entry, looked up): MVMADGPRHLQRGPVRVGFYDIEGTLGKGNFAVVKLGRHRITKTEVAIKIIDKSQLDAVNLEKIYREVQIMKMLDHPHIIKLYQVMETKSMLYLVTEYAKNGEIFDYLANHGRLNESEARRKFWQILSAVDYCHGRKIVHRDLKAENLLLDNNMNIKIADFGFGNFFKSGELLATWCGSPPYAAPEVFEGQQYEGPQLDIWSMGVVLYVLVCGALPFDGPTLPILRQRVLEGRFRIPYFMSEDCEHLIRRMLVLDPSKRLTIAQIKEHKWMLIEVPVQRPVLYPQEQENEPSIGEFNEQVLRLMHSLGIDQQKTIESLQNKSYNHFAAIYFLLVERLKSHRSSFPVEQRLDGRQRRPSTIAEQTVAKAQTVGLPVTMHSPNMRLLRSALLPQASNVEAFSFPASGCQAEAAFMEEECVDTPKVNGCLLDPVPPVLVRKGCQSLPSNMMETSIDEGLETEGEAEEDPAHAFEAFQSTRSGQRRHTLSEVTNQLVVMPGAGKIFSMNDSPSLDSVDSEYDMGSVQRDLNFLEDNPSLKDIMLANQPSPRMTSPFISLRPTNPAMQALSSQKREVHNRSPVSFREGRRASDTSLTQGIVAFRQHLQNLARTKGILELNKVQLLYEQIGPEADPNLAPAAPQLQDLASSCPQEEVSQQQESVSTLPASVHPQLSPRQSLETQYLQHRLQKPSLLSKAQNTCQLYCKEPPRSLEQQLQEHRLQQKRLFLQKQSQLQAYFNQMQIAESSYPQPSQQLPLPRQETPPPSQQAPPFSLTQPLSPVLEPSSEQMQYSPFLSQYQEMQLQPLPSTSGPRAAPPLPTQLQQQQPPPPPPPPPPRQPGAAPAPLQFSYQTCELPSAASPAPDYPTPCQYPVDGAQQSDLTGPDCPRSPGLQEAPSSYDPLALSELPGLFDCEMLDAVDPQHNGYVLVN

CDK3 (human) = CDK3 (human) (UniProt Q00526)
RET (human) = RET (human) (UniProt P07949)
RIPK2 (human) = RIPK2 (human) (UniProt O43353)
CAMK4 (human) = CAMK4 (human) (UniProt Q16566)
STK10 (human) = STK10 (human) (UniProt O94804)
MAP3K10 (human) = MAP3K10 (human) (UniProt Q02779)
SBK1 (human) = SBK1 (human) (UniProt Q52WX2)
Chain of SBK1 (human) (Q52WX2 whole entry, looked up): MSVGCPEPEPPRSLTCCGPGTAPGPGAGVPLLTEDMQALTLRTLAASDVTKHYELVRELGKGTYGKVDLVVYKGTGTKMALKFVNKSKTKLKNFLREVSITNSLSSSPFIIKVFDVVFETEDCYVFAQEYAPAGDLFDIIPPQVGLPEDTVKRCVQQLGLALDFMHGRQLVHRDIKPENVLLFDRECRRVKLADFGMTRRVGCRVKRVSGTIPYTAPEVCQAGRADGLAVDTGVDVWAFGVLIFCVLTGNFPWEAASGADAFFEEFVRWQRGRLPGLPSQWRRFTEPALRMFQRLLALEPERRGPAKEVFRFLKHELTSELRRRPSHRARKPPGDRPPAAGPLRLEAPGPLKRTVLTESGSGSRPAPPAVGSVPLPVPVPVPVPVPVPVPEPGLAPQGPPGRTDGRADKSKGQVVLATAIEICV

MTOR (human) = MTOR (human) (UniProt P42345)
RPS6KA5 KD2 (human) = RPS6KA5 KD2 (human) (UniProt O75582)
Chain of RPS6KA5 KD2 (human) (O75582 whole entry, looked up): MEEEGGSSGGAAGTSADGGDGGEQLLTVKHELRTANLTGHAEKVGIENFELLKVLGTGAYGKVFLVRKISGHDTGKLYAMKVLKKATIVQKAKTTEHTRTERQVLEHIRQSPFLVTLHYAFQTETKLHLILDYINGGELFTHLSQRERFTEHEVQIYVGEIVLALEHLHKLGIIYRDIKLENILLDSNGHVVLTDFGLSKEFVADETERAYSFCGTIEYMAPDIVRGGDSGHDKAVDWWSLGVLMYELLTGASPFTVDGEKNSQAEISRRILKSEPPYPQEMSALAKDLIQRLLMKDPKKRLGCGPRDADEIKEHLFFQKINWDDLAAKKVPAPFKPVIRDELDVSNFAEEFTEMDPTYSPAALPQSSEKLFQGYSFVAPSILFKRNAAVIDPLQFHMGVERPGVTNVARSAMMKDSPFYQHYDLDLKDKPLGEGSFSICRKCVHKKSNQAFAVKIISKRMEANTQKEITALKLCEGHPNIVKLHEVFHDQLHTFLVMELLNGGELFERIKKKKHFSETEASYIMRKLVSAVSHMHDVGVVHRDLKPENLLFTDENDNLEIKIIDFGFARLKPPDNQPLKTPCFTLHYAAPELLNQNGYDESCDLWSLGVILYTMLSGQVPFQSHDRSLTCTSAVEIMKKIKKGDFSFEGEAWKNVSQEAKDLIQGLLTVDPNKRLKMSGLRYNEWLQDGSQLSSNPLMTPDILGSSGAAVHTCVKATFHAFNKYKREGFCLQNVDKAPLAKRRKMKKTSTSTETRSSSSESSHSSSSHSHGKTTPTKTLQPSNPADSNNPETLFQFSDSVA

CDK2 (human) = CDK2 (human) (UniProt P24941)
CSNK1A1 (human) = CSNK1A1 (human) (UniProt P48729)
LRRK2 (human) = LRRK2 (human) (UniProt Q5S007)
[2] = tested on: PIK3CA (human), P42336 [H1047L]
ULK2 (human) = ULK2 (human) (UniProt Q8IYT8)
Chain of ULK2 (human) (Q8IYT8 whole entry, looked up): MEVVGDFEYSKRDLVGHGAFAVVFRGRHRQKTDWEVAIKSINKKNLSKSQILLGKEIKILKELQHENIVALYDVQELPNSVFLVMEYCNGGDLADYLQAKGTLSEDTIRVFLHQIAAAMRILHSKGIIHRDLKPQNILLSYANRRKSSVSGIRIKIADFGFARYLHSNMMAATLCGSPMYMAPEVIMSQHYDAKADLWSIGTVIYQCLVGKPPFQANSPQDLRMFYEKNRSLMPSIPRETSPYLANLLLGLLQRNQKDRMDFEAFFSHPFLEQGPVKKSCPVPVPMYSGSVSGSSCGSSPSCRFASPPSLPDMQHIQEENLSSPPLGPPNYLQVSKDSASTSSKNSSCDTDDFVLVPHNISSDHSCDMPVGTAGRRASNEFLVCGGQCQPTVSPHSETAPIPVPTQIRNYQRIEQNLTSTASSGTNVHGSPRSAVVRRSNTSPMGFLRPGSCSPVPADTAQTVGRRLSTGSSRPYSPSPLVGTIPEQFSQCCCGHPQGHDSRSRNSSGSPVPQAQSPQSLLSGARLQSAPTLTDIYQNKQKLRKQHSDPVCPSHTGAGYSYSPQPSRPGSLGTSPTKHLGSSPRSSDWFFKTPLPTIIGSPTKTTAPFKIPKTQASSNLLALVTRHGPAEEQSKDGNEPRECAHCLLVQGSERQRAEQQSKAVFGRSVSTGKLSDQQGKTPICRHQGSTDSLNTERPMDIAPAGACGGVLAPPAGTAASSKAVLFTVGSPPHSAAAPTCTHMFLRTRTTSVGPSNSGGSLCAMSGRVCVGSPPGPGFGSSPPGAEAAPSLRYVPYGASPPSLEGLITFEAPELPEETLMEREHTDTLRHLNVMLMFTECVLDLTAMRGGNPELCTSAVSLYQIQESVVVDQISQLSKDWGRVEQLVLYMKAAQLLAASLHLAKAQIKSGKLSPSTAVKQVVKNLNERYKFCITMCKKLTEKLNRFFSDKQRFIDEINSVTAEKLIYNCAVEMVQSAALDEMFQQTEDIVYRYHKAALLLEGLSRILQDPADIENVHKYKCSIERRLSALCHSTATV

MAP3K11 (human) = MAP3K11 (human) (UniProt Q16584)
CLK1 (human) = CLK1 (human) (UniProt P49759)
MAPKAPK5 (human) = MAPKAPK5 (human) (UniProt Q8IW41)
AURKC (human) = AURKC (human) (UniProt Q9UQB9)
PIK3CA (human) = PIK3CA (human) (UniProt P42336)
CRK2 (P.falciparum) = CRK2 (P.falciparum) (UniProt P61075)
Chain of CRK2 (P.falciparum) (P61075 whole entry, looked up): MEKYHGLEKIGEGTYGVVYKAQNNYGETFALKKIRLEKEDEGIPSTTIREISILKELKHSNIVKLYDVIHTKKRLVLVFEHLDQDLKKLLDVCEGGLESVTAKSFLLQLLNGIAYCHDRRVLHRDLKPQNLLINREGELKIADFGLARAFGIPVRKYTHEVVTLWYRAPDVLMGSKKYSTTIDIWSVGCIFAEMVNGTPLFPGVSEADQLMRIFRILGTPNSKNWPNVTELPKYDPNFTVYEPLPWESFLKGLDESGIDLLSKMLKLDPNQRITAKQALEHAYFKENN

CDK5 (human) = CDK5 (human) (UniProt Q00535)
TLK2 (human) = TLK2 (human) (UniProt Q86UE8)
Chain of TLK2 (human) (Q86UE8 whole entry, looked up): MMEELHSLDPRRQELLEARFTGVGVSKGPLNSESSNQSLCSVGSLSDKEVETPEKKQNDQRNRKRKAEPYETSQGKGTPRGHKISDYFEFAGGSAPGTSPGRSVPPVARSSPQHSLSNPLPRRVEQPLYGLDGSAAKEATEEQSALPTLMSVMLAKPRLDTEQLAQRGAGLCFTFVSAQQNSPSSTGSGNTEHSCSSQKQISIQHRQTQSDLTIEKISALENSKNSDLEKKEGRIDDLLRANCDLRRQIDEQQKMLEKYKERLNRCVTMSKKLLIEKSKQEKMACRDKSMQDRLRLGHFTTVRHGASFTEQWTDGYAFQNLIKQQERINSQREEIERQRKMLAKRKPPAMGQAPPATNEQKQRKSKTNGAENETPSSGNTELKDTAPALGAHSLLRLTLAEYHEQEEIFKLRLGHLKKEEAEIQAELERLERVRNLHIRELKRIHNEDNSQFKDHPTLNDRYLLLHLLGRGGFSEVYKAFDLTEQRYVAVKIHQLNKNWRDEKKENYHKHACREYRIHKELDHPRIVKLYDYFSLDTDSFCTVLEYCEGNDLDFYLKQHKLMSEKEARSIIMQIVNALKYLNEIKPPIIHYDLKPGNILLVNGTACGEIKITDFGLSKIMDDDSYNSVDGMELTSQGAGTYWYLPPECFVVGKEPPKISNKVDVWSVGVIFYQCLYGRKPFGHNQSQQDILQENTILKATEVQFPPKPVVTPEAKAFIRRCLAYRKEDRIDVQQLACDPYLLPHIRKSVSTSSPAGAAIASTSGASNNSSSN

CDK4 CCND1 (human) = CDK4 CCND1 (human) (UniProt P11802+P24385)
MYLK2 (human) = MYLK2 (human) (UniProt Q9H1R3)
ACVRL1 (human) = ACVRL1 (human) (UniProt P37023)
EPHA5 (human) = EPHA5 (human) (UniProt P54756)
WEE1 (human) = WEE1 (human) (UniProt P30291)
Chain of WEE1 (human) (P30291 whole entry, looked up): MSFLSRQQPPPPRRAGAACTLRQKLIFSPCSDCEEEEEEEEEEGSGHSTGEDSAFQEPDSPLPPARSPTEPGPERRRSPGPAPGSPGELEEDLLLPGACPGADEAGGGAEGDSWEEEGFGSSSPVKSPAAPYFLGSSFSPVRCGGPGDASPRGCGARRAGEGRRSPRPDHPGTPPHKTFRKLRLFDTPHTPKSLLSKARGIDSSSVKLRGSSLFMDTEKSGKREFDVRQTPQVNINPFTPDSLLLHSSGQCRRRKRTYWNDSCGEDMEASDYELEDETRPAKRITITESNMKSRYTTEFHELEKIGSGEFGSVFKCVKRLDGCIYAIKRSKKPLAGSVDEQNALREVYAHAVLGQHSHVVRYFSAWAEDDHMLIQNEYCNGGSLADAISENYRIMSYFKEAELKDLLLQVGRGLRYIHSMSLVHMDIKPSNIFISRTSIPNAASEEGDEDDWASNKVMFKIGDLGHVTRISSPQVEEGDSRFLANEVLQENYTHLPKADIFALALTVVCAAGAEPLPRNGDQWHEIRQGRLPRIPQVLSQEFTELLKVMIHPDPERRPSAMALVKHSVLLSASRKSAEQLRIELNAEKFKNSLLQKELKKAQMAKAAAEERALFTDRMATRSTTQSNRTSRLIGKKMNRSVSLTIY

NEK2 (human) = NEK2 (human) (UniProt P51955)

Row | Compound | kinase still bound, per cent of control (MAP3K3 (human)) [%] | kinase still bound, per cent of control (NUAK1 (human)) [%] | kinase still bound, per cent of control (PIP5K1C (human)) [%] | kinase still bound, per cent of control (YSK4 (human)) [%] | kinase still bound, per cent of control (SIK1 (human)) [%] | kinase still bound, per cent of control (ZAP70 (human)) [%] | kinase still bound, per cent of control (SIK2 (human)) [%] | kinase still bound, per cent of control (CDK3 (human)) [%] | kinase still bound, per cent of control (RET (human)) [%] | kinase still bound, per cent of control (STK10 (human)) [%] | kinase still bound, per cent of control (MAP3K10 (human)) [%] | kinase still bound, per cent of control (SBK1 (human)) [%] | kinase still bound, per cent of control (MTOR (human)) [%] | kinase still bound, per cent of control (RPS6KA5 KD2 (human)) [%] | kinase still bound, per cent of control (CDK2 (human)) [%] | kinase still bound, per cent of control (LRRK2 (human)) [%] | kinase still bound, per cent of control [2] [%] | kinase still bound, per cent of control (ULK2 (human)) [%] | kinase still bound, per cent of control (CLK1 (human)) [%] | kinase still bound, per cent of control (AURKC (human)) [%] | further results
1 | CCN1CCN(Cc2ccc(NC(=O)c3ccc(C)c(/C=C/c4cnc5[nH]ccc5c4OC)c3)cc2C(F)(F)F)CC1 | 1.4 | 100 | 84 | 0.2 | 0.9 | 52 | 30 | 100 | 0.1 | 0 | 20 | 57 | 100 | 100 | 96 | 12 | 100 | 35 | 14 | 1.5 | kinase still bound, per cent of control [1]: 100%; kinase still bound, per cent of control (RIPK2 (human)): 1.8%; kinase still bound, per cent of control (CAMK4 (human)): 100%; kinase still bound, per cent of control (CSNK1A1 (human)): 87%; kinase still bound, per cent of control (MAP3K11 (human)): 3.6%; kinase still bound, per cent of control (MAPKAPK5 (human)): 90%; kinase still bound, per cent of control (PIK3CA (human)): 100%; kinase still bound, per cent of control (CRK2 (P.falciparum)): 93%; kinase still bound, per cent of control (CDK5 (human)): 100%; kinase still bound, per cent of control (TLK2 (human)): 93%; kinase still bound, per cent of control (CDK4 CCND1 (human)): 74%; kinase still bound, per cent of control (MYLK2 (human)): 0.55%; kinase still bound, per cent of control (ACVRL1 (human)): 100%; kinase still bound, per cent of control (EPHA5 (human)): 3.6%; kinase still bound, per cent of control (WEE1 (human)): 100%; kinase still bound, per cent of control (NEK2 (human)): 100%
2 | C=CC(=O)Nc1ccc(C(=O)c2sc(Nc3ccc(N4CCN(C)CC4)cc3OC)nc2N)cc1 | 65 | 100 | 44 | 70 | 83 | 20 | 72 | 88 | 100 | 100 | 91 | 85 | 90 | 7 | 75 | 5.2 | 100 | 9.4 | 0.55 | 68 | kinase still bound, per cent of control [1]: 100%; kinase still bound, per cent of control (RIPK2 (human)): 100%; kinase still bound, per cent of control (CAMK4 (human)): 100%; kinase still bound, per cent of control (CSNK1A1 (human)): 73%; kinase still bound, per cent of control (MAP3K11 (human)): 100%; kinase still bound, per cent of control (MAPKAPK5 (human)): 14%; kinase still bound, per cent of control (PIK3CA (human)): 95%; kinase still bound, per cent of control (CRK2 (P.falciparum)): 92%; kinase still bound, per cent of control (CDK5 (human)): 86%; kinase still bound, per cent of control (TLK2 (human)): 83%; kinase still bound, per cent of control (CDK4 CCND1 (human)): 10%; kinase still bound, per cent of control (MYLK2 (human)): 66%; kinase still bound, per cent of control (ACVRL1 (human)): 100%; kinase still bound, per cent of control (EPHA5 (human)): 89%; kinase still bound, per cent of control (WEE1 (human)): 100%; kinase still bound, per cent of control (NEK2 (human)): 100%
3 | CC(=O)c1c(C)c2cnc(Nc3ccc(N4CCNCC4)cn3)nc2n(C2CCCC2)c1=O | 4.2 | 48 | 35 | 4.3 | 90 | 73 | 63 | 74 | 71 | 23 | 93 | 36 | 40 | 15 | 20 | 50 | 25 | 0 | 1.2 | 96 | kinase still bound, per cent of control (PIK3CA (human)): 69%; kinase still bound, per cent of control (CRK2 (P.falciparum)): 19%; kinase still bound, per cent of control (CDK5 (human)): 48%; kinase still bound, per cent of control (TLK2 (human)): 89%; kinase still bound, per cent of control (CDK4 CCND1 (human)): 0%; kinase still bound, per cent of control (MYLK2 (human)): 32%; kinase still bound, per cent of control (EPHA5 (human)): 98%; kinase still bound, per cent of control (WEE1 (human)): 36%; kinase still bound, per cent of control (NEK2 (human)): 31%
